# According to PubChem BioAssay (NCI):
# Where “and” joins values, the source holds several entries; their conditions need not be identical. Equal values may be shown once.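 Test compounds were applied to cells in 96-well plates for 48 hours at 5 doses. The concentration for 50% growth inhibition is given as GI50. TGI is the concentration that stops growth completely.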
# Key:
# Assay in all cases: NCI tumour cell line growth inhibition, 48 h
# HCC-2998 colon = system: HCC-2998 colon
# HOP-92 NSCLC = system: HOP-92 NSCLC
# M14 melanoma = system: M14 melanoma
# MDA-MB-231 breast = system: MDA-MB-231 breast
# NCI-H23 lung = system: NCI-H23 lung
# NCI/ADR-RES ovarian = system: NCI/ADR-RES ovarian
# RPMI-8226 leukemia = system: RPMI-8226 leukemia
# SNB-75 CNS = system: SNB-75 CNS
# UACC-62 melanoma = system: UACC-62 melanoma
# UO-31 renal = system: UO-31 renal
SMILES,GI50 (HCC-2998 colon),TGI (HCC-2998 colon),GI50 (HOP-92 NSCLC),TGI (HOP-92 NSCLC),GI50 (M14 melanoma),TGI (M14 melanoma),GI50 (MDA-MB-231 breast),TGI (MDA-MB-231 breast),GI50 (NCI-H23 lung),TGI (NCI-H23 lung),GI50 (NCI/ADR-RES ovarian),TGI (NCI/ADR-RES ovarian),GI50 (RPMI-8226 leukemia),TGI (RPMI-8226 leukemia),GI50 (SNB-75 CNS),TGI (SNB-75 CNS),GI50 (UACC-62 melanoma),TGI (UACC-62 melanoma),GI50 (UO-31 renal),TGI (UO-31 renal)
COc1ccccc1/C=N\N=C(N/N=C/c1ccccc1OC)N/N=C/c1ccccc1OC,3.82 µM,> 100 µM,1.92 µM,5.34 µM,2.99 µM,9.96 µM,3.2 µM,9.11 µM,3.91 µM,> 100 µM,3.12 µM,10.5 µM,2.96 µM,12.3 µM,2.72 µM,9.4 µM,2.55 µM,7.71 µM,1.81 µM,7.25 µM
C=C1C(=O)O[C@H]2[C@H]1CC/C(COC(=O)NCCc1c[nH]c3ccc(OC)cc13)=C\CC[C@@]1(C)O[C@@H]21,2.34 µM,5.64 µM,1.19 µM,2.87 µM,1.62 µM,3.51 µM,1.97 µM,4.44 µM,2.25 µM,5.84 µM,7.57 µM,29.2 µM,1.44 µM,4.74 µM,10 µM,21.7 µM,1.72 µM,3.77 µM,1.46 µM,2.77 µM
c1ccc(-c2nc(-c3ccccc3)c(-c3ccccc3)[nH]2)cc1,,> 100 µM,,> 100 µM,,> 100 µM,,> 100 µM,,> 100 µM,,> 100 µM,,> 72.9 µM,,> 100 µM,,> 100 µM,,> 100 µM
NC1=NC(c2ccc(Cl)cc2)C2=C(N1)/C(=C/c1ccc(Cl)cc1)CCC2 (stereo unspecified),2.11 µM,4.27 µM,14.2 µM,40.5 µM,2.77 µM,11.6 µM,> 29.6 µM,> 56.1 µM,5.98 µM,26.7 µM,12.2 µM,> 100 µM,2.36 µM,6.15 µM,16.4 µM,59.3 µM,13.3 µM,34.8 µM,9.76 µM,27.9 µM
Cn1cc(-c2cnc3ccc4ccc(CS(=O)(=O)NCc5ccccn5)cc4c(=O)c3c2)cn1,13.4 µM,27.9 µM,6.19 µM,> 77.3 µM,11.9 µM,33.6 µM,19.6 µM,> 68.4 µM,16.2 µM,> 84.7 µM,23.5 µM,> 100 µM,11.6 µM,> 75.2 µM,6.45 µM,47.8 µM,12.5 µM,39.4 µM,12.6 µM,> 100 µM
CCOC(=O)/C=C/C(C(=O)/C=C/c1ccc(O)c(OC)c1)=C(O)\C=C\c1ccc(O)c(OC)c1,1.77 µM,3.74 µM,10.5 µM,30.1 µM,2.2 µM,5.15 µM,2 µM,8.55 µM,1.73 µM,4.42 µM,2.13 µM,6.94 µM,2.6 µM,7.23 µM,11.2 µM,28.7 µM,1.85 µM,3.76 µM,16.9 µM,49.1 µM
NS(=O)(=O)c1cccc(N=Cc2c(O)[nH]c3ccccc23)c1,> 25 µM,> 25 µM,> 25 µM,> 25 µM,> 25 µM,> 25 µM,> 25 µM,> 25 µM,> 25 µM,> 25 µM,> 25 µM,> 25 µM,> 25 µM,> 25 µM,> 25 µM,> 25 µM,> 25 µM,> 25 µM,> 22.7 µM,> 25 µM
Cc1ccc(SC2=CC(=O)c3nc4ccccc4c4ccnc2c34)cc1,> 67.8 µM,> 100 µM,20 µM,38.2 µM,51.9 µM,> 100 µM,23.4 µM,60 µM,24.7 µM,> 73.9 µM,27.9 µM,> 95.4 µM,30.1 µM,> 100 µM,39.8 µM,> 100 µM,43.3 µM,> 100 µM,15.5 µM,29.7 µM
COc1ccc(Cl)cc1NC(=O)C(Br)C(Br)C(=O)O (stereo unspecified),8.25 µM,22.2 µM,12.8 µM,33.1 µM,14.9 µM,34.9 µM,9.23 µM,26 µM,11.9 µM,47.8 µM,3.03 µM,9.26 µM,17.7 µM,> 91.7 µM,26.6 µM,> 60.1 µM,2.81 µM,8.93 µM,19.2 µM,43.6 µM
Cc1ccc2c(O)c(O)cc(NC(C)CCCN)c2n1 (stereo unspecified),9.11 µM,> 51.5 µM,57.5 µM,> 100 µM,33.6 µM,> 88.1 µM,7.22 µM,74 µM,3.3 µM,19.3 µM,> 66.9 µM,> 100 µM,8.89 µM,> 53.2 µM,24.6 µM,> 62.7 µM,27.3 µM,> 66.8 µM,7.77 µM,43 µM
CC(=O)OC1CC2(O)C3CCC4CC(O)CCC4(C)C3CCC2(C)C1C1=CC(=O)OC1 (stereo unspecified),,0.39 µM,,19.3 µM,,0.367 µM,,6.61 µM,,0.137 µM,,0.298 µM,,0.445 µM,,0.618 µM,,0.475 µM,,0.27 µM
COc1cc(-c2nc3sc4c(c3c(=O)[nH]2)CCCCCC4)cc(OC)c1OC,2.41 µM,> 33.2 µM,0.887 µM,9.45 µM,0.831 µM,> 33.2 µM,1.07 µM,29.5 µM,1.43 µM,> 33.2 µM,0.892 µM,> 33.2 µM,1.19 µM,12.6 µM,0.701 µM,2.52 µM,0.743 µM,30.3 µM,2.07 µM,> 33.2 µM
COc1cc(/C=C2\CN(C)C/C(=C\c3cc(CN4CCCCC4)c(O)c(OC)c3)C2=O)cc(CN2CCCCC2)c1O,2.61 µM,12 µM,2.55 µM,9.21 µM,3.02 µM,10.8 µM,3.18 µM,11.6 µM,5.11 µM,21.4 µM,6.24 µM,> 100 µM,3.04 µM,9.32 µM,1.99 µM,9.13 µM,7.2 µM,20.3 µM,3.78 µM,17.7 µM
O=C(O)c1ccc(N/C=C2\C(=O)c3ccccc3OC2O)cc1O (stereo unspecified),24.1 µg/mL,45.4 µg/mL,4.11 µg/mL,36.5 µg/mL,21.5 µg/mL,47.5 µg/mL,22 µg/mL,54.6 µg/mL,19 µg/mL,58.4 µg/mL,22.3 µg/mL,78.6 µg/mL,2.45 µg/mL,8.67 µg/mL,17.7 µg/mL,84.3 µg/mL,17.4 µg/mL,52.4 µg/mL,6.68 µg/mL,36.4 µg/mL
COc1cc2c[n+](C)c3c4ccccc4ccc3c2cc1OC (tested in a mixture with another compound),6.36 µM,21.3 µM,5.25 µM,28.6 µM,8.31 µM,51.9 µM,10.3 µM,9.2 µM and 25.6 µM,,31.7 µM,,> 100 µM,1.71 µM,,3.11 µM,8.49 µM and 15 µM,3.08 µM,20.3 µM,,> 100 µM
Cc1cc(C)c(O)c(CN(C)Cc2cc(Cl)cc(Cl)c2O)c1,4.8 µM,17.4 µM,3.07 µM,13.3 µM,9.17 µM,22.8 µM,2.97 µM,12.8 µM,3.91 µM,17.3 µM,2.89 µM,12.5 µM,3.12 µM,23.2 µM,11.5 µM,36.4 µM,3.42 µM,13.1 µM,1.64 µM,6.58 µM
C=CCC1(O)c2cccc(NCCO)c2C(=O)c2c(NCCO)cccc21,> 100 µM,> 100 µM,80.7 µM,> 100 µM,> 100 µM,> 100 µM,> 100 µM,> 100 µM,> 100 µM,> 100 µM,> 100 µM,> 100 µM,> 100 µM,> 100 µM,75.3 µM,> 100 µM,> 100 µM,> 100 µM,95.7 µM,> 100 µM
C#Cc1c(C(N)=O)ncn1C1OC(COP(=O)(OCc2ccc([N+](=O)[O-])o2)N(C)CCCCCl)C(O)C1O (stereo unspecified),16.2 µM,> 100 µM,51.2 µM,> 100 µM,67.9 µM,> 100 µM,> 100 µM,> 100 µM,5.99 µM,73.6 µM,15.1 µM,> 100 µM,0.0113 µM,> 100 µM,28.1 µM,> 100 µM,> 100 µM,> 100 µM,34.8 µM,> 100 µM
O=C(O)c1cc(N=Cc2ccccc2O)cc(C(=O)O)c1,,> 100 µM,,> 100 µM,,> 100 µM,,> 100 µM,,> 100 µM,,> 100 µM,,> 100 µM,,> 100 µM,,> 100 µM,,> 100 µM
